Results from patent US7541020B2, “Aminoalkyl glucosaminide phosphate compounds and their use as adjuvants and immunoeffectors” (priority 1997, dated 2009).
“And” between values parts separate entries of the source, which are not always exact repeats. Equal entries are not always repeated. Where two headings read alike, the source gives them in different places.

Tests used:
[1] = tested on: tetanus toxoid; parameters: species or system BFD1 (C57B1/6X DBA/2) female mice; details: mouse, in vivo
[2] = tested on: ovalbumin; experiment: Stimulation of antiovalbumin antibody production; format: in vivo, BDF1 female mice; details: 50 μg AGP + 50 μg ovalbumin; second immunization day 21; bled 14 days after second injection
Experimental: BDF1 female mice (8 per group) were immunized with 0.2 ml of emulsions containing 50 μg of the AGPs +50 μg of ovalbumin. A second immunization was administered 21 days post primary. Each mouse was bled 14 days after the second injection.

[3] = tested on: influenza A/HK/68; parameters: species or system ICR mice; details: mouse, in vivo
[4] = tested on: influenza A/HK/68; format: in vivo, BALB/c mice; details: mouse, in vivo
[5] = tested on: influenza A/HK/68; format: in vivo, ICR mice; details: mouse, in vivo
[6] = tested on: TNF-α; experiment: Cytokine induction in human whole blood ex vivo culture: TNF-α (ELISA); format: cell-based; details: 4 hr, Table 17
Summary of the method: (§1)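 Compounds in 10% EtOH-water added at 1:10 to human whole blood, 4 hr at 37° C with rotation; RPMI-treated controls. After PBS dilution and centrifugation, supernatant TNF-α and IL-1β measured by ELISA.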

[7] = tested on: IL-1β; experiment: Cytokine induction in human whole blood ex vivo culture: IL-1β (ELISA); format: cell-based; details: 4 hr, Table 17
Summary of the method: as §1

[8] = tested on: hepatitis B surface antigen (HBsAg); experiment: Serum anti-HBsAg antibody titers after intranasal HBsAg + AGP-AF (ELISA); format: in vivo, BALB/c mice; details: for Anti HBsAg Titer^−1 IgG1 / Anti HBsAg Titer^−1 IgG2a: K = 10^3
[9] = tested on: hepatitis B surface antigen (HBsAg); experiment: Vaginal wash anti-HBsAg antibody after intranasal HBsAg + AGP-AF; format: in vivo, BALB/c mice; details: 10 days after the booster immunization; intranasal HBsAg + 10 μg AGP-AF
Excerpt: Vaginal samples were collected 10 days after the booster immunization and assayed for anti-HBsAg antibody.

[10] = tested on: influenza A/HK/68; experiment: Second intranasal influenza vaccine experiment with aqueous AGP and MPL formulations: vaginal, tracheal wash and serum titers, protection; format: in vivo, BABL/c mice; details: mouse, in vivo
[11] = Fever response in rabbits (pyrogenicity); format: in vivo
Experimental: The AGP compounds were also evaluated for their tendency to induce a fever response in rabbits. Each compound was formulated in 10% (v/v) ethanol/water solution at 100 mg/ml, then diluted with D5W to the desired concentration. The material was injected at 3 ml/kg body weight into 3 rabbits. The rise in core temperature of the rabbits was recorded.

[12] = tested on: tetanus toxoid; details: mouse, in vivo, sc
[13] = tested on: E.G7 (OVA) cells; details: s.c. 25 μg OVA in AGP preparation, spleen cells 21 days later
[14] = tested on: tetanus toxoid; details: mouse, in vivo
[15] = tested on: hepatitis B surface antigen (HBsAg); details: for % Cytotoxicity (d16, post 2°): HBsAg + 10 μg AGP-AF intranasally; for % Cytotoxicity (d8, post 3°): intranasal HBsAg + 10 μg AGP-AF
[16] = day 22 post 2°, HBsAg + 10 μg AGP-AF intranasally
[17] = serum, day 21 post 3°, intranasal HBsAg + 10 μg AGP-AF

N-[(R)-3-Decanoyloxytetradecanoyl]-O-[2-deoxy-4-O-phosphono-2-[(R)-3-decanoyloxytetradecanoylamino]-3-O-[(R)-3-decanoyloxytetradecanoyl]-β-D-glucopyranosyl]-L-serine Triethylammonium Salt [B15]
IgG1 T/C Ratio [1]: 4.1 and 4.5 and 5.5 | IgM T/C [1]: 3.14 and 2.29 and 2.86 and 1.71 and 1.57 | Total Ig T/C [1]: 233.88 and 181.91 and 170.10 and 248.06 and 166.56 | Total Ig T/C Ratio [1]: 3.3 and 5.8 and 5.3 | Anti-ovalbumin IgG1 T/C [2]: 0.6 | Anti-ovalbumin IgG1 Titer [2]: 950 | Anti-ovalbumin IgG2a T/C [2]: 0.3 | Anti-ovalbumin IgG2a Titer [2]: 113 | Anti-ovalbumin IgG2b T/C [2]: 16.7 | Anti-ovalbumin IgG2b Titer [2]: 3963 | Anti-ovalbumin IgM T/C [2]: 2.3 | Anti-ovalbumin IgM Titer [2]: 438 | Anti-ovalbumin Total Ig T/C [2]: 4.1 | Anti-ovalbumin Total Ig Titer [2]: 925 | Anti-influenza Titer^−1 Total IgG [3]: 6400 | Percent Survival [3]: 50% | Anti-influenza Titer^−1 IgG1 [4]: 3200 | Anti-influenza Titer^−1 IgG2a [4]: 3200 | Anti-influenza Titer^−1 IgG2b [4]: 400 | Anti-influenza Titer^−1 Total IgG [4]: 1600 | Percent Survival [4]: 100% | Percent Survival [5]: 70% | Titer^−1 IgG1 [5]: 200 | Titer^−1 IgG2a [5]: 3200 | Titer^−1 IgG2b [5]: 6400 | Titer^−1 Total IgG [5]: 3200 | TNF-α ([6]; Dosage 100 ng/ml): 133 pg/mL | TNF-α ([6]; Dosage 500 ng/ml): 183 pg/mL | TNF-α ([6]; Dosage 1000 ng/ml): 209 pg/mL | TNF-α ([6]; Dosage 5000 ng/ml): 280 pg/mL | TNF-α ([6]; Dosage 10,000 ng/ml): 320 pg/mL | IL-1β ([7]; Dosage 100 ng/ml): 51.6 pg/mL | IL-1β ([7]; Dosage 500 ng/ml): 104 pg/mL | IL-1β ([7]; Dosage 1000 ng/ml): 94.4 pg/mL | IL-1β ([7]; Dosage 5000 ng/ml): 126 pg/mL | IL-1β ([7]; Dosage 10,000 ng/ml): 153 pg/mL | Anti HBsAg Titer^−1 IgA [8, 16]: 6,400 | Anti HBsAg Titer^−1 IgG1 [8, 16]: 256K | Anti HBsAg Titer^−1 IgG2a [8, 16]: 500K | Anti HBsAg Titer^−1 IgG1 [8, 17]: 2000K | Anti HBsAg Titer^−1 IgG2a [8, 17]: 2000K | Anti HBsAg Titer^−1 IgA [8, 17]: 25,600 | Vaginal Wash Anti-HBsAg Titer^−1 IgA [9]: 3200 | Vaginal Wash Anti-HBsAg Titer^−1 IgG [9]: 50 | Mucosal IgA Response TW [10]: 11.1 | Mucosal IgA Response VW [10]: 10.9 | Percent Protection [10]: 100% | Serum IgG Titers [10]: 19.1 | mucosal adjuvant activity (in words) [10]: act as mucosal adjuvants causing the production of IgA at two mucosal sites | PYROGENICITY Total Rise ° C., 3 rabbits ([11]; 10 ug/kg, cumulative rise ≥1.5 degree in three rabbits is considered pyrogenic): 3.1 °C | PY[…] ([11]; rabbits): <0.06 µg/kg | Anti-tetanus toxoid IgM T/C [12]: 4.0 and 2.7 | Anti-tetanus toxoid Total Ig T/C [12]: 144.5 | Anti-tetanus toxoid Total Ig Titer [12]: 34,400 | Anti-tetanus toxoid Total IgG T/C [12]: 18.85 | Anti-tetanus toxoid Total IgG Titer [12]: 121,600 | % Cytotoxicity ([13]; E:T 12.5:1): 30% | % Cytotoxicity ([13]; E:T 25:1): 49% | % Cytotoxicity ([13]; E:T 50:1): 58% | Anti-Tetanus Toxoid Titer^−1 Fecal Extract IgG [14]: 50 and 100 | Anti-Tetanus Toxoid Titer^−1 Vaginal Wash IgA [14]: 6400 | Anti-Tetanus Toxoid Titer^−1 Vaginal Wash IgG [14]: 400 and 800 | % Cytotoxicity (d16, post 2°) ([15]; E/T 6.25:1): 4% | % Cytotoxicity (d8, post 3°) ([15]; E/T 6.25:1): 16% | % Cytotoxicity (d16, post 2°) ([15]; E/T 12.5:1): 4% | % Cytotoxicity (d8, post 3°) ([15]; E/T 12.5:1): 25% | % Cytotoxicity (d16, post 2°) ([15]; E/T 25:1): 5% | % Cytotoxicity (d8, post 3°) ([15]; E/T 25:1): 42% | % Cytotoxicity (d16, post 2°) ([15]; E/T 50:1): 13% | % Cytotoxicity (d8, post 3°) ([15]; E/T 50:1): 56%
